Legend:
[1] = molecular target: hydroxymethyldihydropteridine pyrophosphokinase (HMPPS) (Escherichia coli, UniProt P26281); assay: Inhibition of the enzymes forming dihydropteroic acid (HMPPS ATP-γ-P32 transfer assay; synthetase pAB-C14 assay); format: biochemical; conditions: E. coli extract enzymes; result of tests (a) HMPPS and (b) synthetase
Description: The inhibiting activity against HMPPS of a selected compound of formula (I) can, for instance, be tested by monitoring the transfer of the terminal phosphate of adenosinetriphosphate/ATP-γ-P^32 to `dihydropteridine`. […] Such inhibition may, for instance, be easily and simply carried out by incubating an extract of E. coli with pAB-7-C^14, ATP, Mg and `dihydropteridine`. The formation of the dihydropteroate-C^14 can be quantitatively assayed after separating the unreacted pAB substrate, for instance by chromatography. […] Preferably the value is 25μM or less, such as in the range between 2 to 12μM. Generally a value below 7μM is desirable. […]
(a) An assay for HMPPS was developed in which the transfer of the terminal phosphate of ATP-γ-P^32 to Pt could be monitored and correlated with the amount of inhibition of HMPPS by the compound under test. […]
Tubes 1 to 9 containing the amounts of components shown in the Table, were filled up to 200μl with distilled water, incubated for 60 minutes at 37° C and then chilled on ice. […] The charcoal and the filter were then radioactively counted. […]
(b) The activity of the test compound of formula (I) against `synthetase` was determined as follows, by monitoring the formation of dihydropteroate C^14. […]

Staphylococcus aureus = assay: Inhibitor zone test, pteridine in agar with TMP and/or SMX in the well; format: cell-based; conditions: conclusion from Table 3
Description: The pteridine was included in a soya peptone medium of low thymidine content (Wellcotest Sensitivity test agar) contained in a Petri dish and the other component(s) added to the well resulting from the removal of a small plug from the medium. The surface of the medium was inoculated with the test organism and then incubated. The amount of zone inhibition is shown in Table 3, wherein the numbers represent the complete zone inhibition (i.e. the number of […] from the edge of the well after about 6 × magnification) and the figures in parenthesis include the zones of partial inhibition.

Derm. dermatonomous = conditions: British Pat. No. 1303171 and Application No. 36289/70; cited from earlier work
Cl. perfringens = conditions: British Pat. No. 1303171 and Application No. 36289/70; cited from earlier work

Sequence of hydroxymethyldihydropteridine pyrophosphokinase (HMPPS) (P26281 whole entry): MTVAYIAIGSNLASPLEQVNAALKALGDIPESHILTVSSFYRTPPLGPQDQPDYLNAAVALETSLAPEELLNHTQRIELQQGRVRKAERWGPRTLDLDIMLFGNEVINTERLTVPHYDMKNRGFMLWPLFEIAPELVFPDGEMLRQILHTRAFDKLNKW

Compound	IC50 [1]	synergistic activity with TMP and/or SMX (Staphylococcus aureus)	bacteriostatic activity (Derm. dermatonomous)	bacteriostatic activity (Cl. perfringens)
CCC1(CC)Nc2nc(N)nc(O)c2N=C1CO [R=CH2 OH R^1 =R^2 =Et, 2-amino-4-hydroxy-6-hydroxymethyl-7,7-diethyl-7,8-dihydropteridine]	2.1 µM	synergism with TMP and SMX alone and multiple synergism with both	–	–
CC1=Nc2c(nc(N)[nH]c2=O)NC1(C)C [2-amino-4-hyroxy-6-methyl-7,7-dimethyl-7,8-dihydropteridine]	–	–	particularly effective	particularly effective
CC1(C)Nc2nc(N)nc(O)c2N=C1CO [2-amino-4-hydroxy-6-hydroxymethyl-7,7-dimethyl-7,8-dihydropteridine]	–	–	particularly effective	particularly effective
